In article PMC3073417 (The Journal of neuroscience : the official journal of the …, 2011):

Target: hTRPA1 (Homo sapiens, UniProt O75762)
Assay: whole-cell patch clamp of HEK293 cells expressing hTRPA1
Assay type: cell-based

Chain of hTRPA1 (O75762 whole entry): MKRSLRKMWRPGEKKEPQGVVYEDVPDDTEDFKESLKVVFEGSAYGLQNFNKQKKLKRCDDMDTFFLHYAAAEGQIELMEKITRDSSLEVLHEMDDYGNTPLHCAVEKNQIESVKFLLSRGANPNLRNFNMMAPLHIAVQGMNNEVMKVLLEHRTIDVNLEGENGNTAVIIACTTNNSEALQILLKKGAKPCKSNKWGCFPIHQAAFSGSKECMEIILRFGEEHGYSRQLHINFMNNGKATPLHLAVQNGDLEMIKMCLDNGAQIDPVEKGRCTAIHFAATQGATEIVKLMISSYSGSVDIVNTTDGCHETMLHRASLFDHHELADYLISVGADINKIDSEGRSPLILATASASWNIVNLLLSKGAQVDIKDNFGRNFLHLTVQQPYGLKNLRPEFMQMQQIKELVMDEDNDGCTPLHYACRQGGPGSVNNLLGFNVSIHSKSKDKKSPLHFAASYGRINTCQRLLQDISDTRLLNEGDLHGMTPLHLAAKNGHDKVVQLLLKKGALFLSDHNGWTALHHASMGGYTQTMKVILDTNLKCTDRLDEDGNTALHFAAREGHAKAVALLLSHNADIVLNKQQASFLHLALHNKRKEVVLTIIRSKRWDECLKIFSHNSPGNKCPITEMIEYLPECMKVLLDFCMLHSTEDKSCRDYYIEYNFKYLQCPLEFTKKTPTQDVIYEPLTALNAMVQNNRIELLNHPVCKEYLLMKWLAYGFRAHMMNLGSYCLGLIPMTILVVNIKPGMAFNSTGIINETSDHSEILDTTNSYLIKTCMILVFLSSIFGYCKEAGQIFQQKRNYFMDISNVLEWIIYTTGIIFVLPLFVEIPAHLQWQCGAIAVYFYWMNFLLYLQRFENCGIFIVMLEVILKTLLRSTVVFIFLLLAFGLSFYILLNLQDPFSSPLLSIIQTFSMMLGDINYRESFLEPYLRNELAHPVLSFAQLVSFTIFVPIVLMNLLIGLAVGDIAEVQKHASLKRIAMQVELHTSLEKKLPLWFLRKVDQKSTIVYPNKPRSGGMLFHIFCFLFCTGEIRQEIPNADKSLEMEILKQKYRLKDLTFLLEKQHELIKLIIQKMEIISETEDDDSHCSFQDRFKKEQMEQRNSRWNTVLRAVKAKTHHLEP

EC50: 2800 nM
Structure (SMILES): C/C=C(/C=O)[C@@H](CC=O)CC(=O)OCCc1ccc(O)cc1 [OC, (−)-oleocanthal]
